pIC50: −log10 of the molar value.
Tests used:
[1] = (§1) Test for beta-lactamase Inhibitory Activity: he inhibitory activities of present compounds against various enzymes were measured by spectrophotometric assay using […] and using nitrocefin as a substrate [J. Antimicrob. Chemother., 28, pp 775-776 (1991)]. The concentration of inhibitor (IC50) which inhibits by 50% the reaction of hydrolysis of nitrocefin by the enzyme is determined.
[2] = as §1; remark: listed apart in the source

Compound CC(=O)NNC(=O)[C@@H]1CC[C@@H]2CN1C(=O)N2OS(=O)(=O)O has a pIC50 [1] of 8.10 and a pIC50 [2] of 7.04.
